# Results published in patent publication US9012422B2, “Method of treating acute myelogenous leukemia” (Wake Forest University Health Sciences, priority 2011, dated 2015).
# Where two headings read alike, the source gives them in different places.
# Key:
# HL60 cells = assay: Cell Titer-Glo viability (cytotoxicity) assay, HL60; type: cell-based, human; details: 72 hours exposure
# Description: (§1) We chose to use doxorubicin as the anthracycline as it is the best tolerated anthracycline in C57/Bl6 mice^11 and would allow for comparisons between in vivo and in vitro studies.
# Jurkat cells = assay: Cell Titer-Glo viability (cytotoxicity) assay, Jurkat; type: cell-based, human; details: 72 hours exposure
# Description: as §1
# THP-1 cells = assay: Cell Titer-Glo viability (cytotoxicity) assay, THP-1; type: cell-based, human; details: 72 hours exposure
# Description: as §1
# K562 cells [1] = assay: Cell Titer-Glo viability (cytotoxicity) assay, K562; type: cell-based, human; details: 72 hours exposure
# Description: as §1
# KG1a cells = assay: Cell Titer-Glo viability (cytotoxicity) assay, KG1a; type: cell-based, human; details: 72 hours exposure
# Description: as §1
# OCI-AML3 cells = assay: Cell Titer-Glo viability (cytotoxicity) assay, OCI-AML3; type: cell-based, human; details: 72 hours exposure
# Description: as §1
# murine AML cell lines = details: 24 hours
# Protocol: FIG. 11. […] (A) Flow cytometry results of Annexin V assays. The indicated MLL-ENL driven leukemia cells were treated with drug for 24 hours analyzed by flow cytometry, as in FIG. 5. (B) MLL-ENL and neuroblastoma RAS viral oncogene homolog (NRAS) containing AML cells were exposed to the indicated drug for 24 hours and analyzed as in (A).
# [2] = test system: MR2 cell line (MLL-ENL and NRasG12D) leukemia in C57/Bl6 mice
# Description: FIG. 12. […] C57/Bl6 mice were sublethally irradiated to 4.5 Gy and injected with an MLL-ENL and NRAS syngeneic leukemia. […] P value was obtained by log rank test. […] P value was obtained by log rank test.
# (§2) The Wake Forest University Institutional Animal Care and Use Committee approved all mouse experiments. Luciferase-tagged leukemia cells were transplanted into 6- to 8-wk-old sublethally irradiated recipient mice (4.5 Gy) by tail-vein injection of 1×10^6 viable cells. Mice were monitored by bioluminescent imaging on day 7. Imaging was performed using an IVIS100 imaging system (Caliper LifeSciences, Hopkinton, Mass.). Mice were injected with 150 mg/kg D-Luciferin (Gold Biotechnology, St. Louis, Mo.), anesthetized with isoflurane, and imaged for 2 min. Chemotherapy was initiated upon detection of clear signals. […] Control animals were injected with PBS. Repeat luciferase imaging was performed on day 6 of treatment.
# (§3) Recent studies have shown that the bone marrow microenvironment can have a profound effect on chemotherapy response in AML^24. Additionally, the immune system can affect the degree of response to a given therapy in vivo^25. […] This cell line express MLL-ENL and the mutated oncogene, NRas^G12D in conjunction with a luciferase reporter. […] This cell line expresses the FLT3 receptor with an internal tandem duplication (FLT3 ITD) in place of NRas^G12D. […] (300 mg/kg), 5-FU (121 mg/kg) or Ara-C (125 mg/kg) plus doxorubicin (3.75 mg/kg) on days 1, 3, 5, and 7 (FIG. 1A).
# [3] = test system: MFL2 cell line (MLL-ENL and FLT3 ITD) leukemia in C57/Bl6 mice; details: for survival compared to controls: 5-FU 121 mg/kg
# Description: FIG. 6. […] A) Schema of treatment trial. C57/Bl6 mice were sublethally irradiated to 4.5 Gy and injected with an MLL-ENL and Fms-like tyrosine kinase 3 internal tandem duplication (FLT3-ITD) syngeneic leukemia. […] (B) Bioluminescent image of mice on day 6 following treatment. (C) Kaplan-Meier curves for animals treated with Fd, 5-FU or AD as above.
# as §2, §3
# [4] = test system: MFL2 cells (MLL-ENL + Flt3 ITD); details: read-out: IC50 MFL2
# Protocol: (§8) Cells were grown at 37° C. with 5% CO2. Viability assays were done using the Cell Titer-Glo assay (Promega, Madison, Wis.) according to the manufacturer's protocol. All murine cells were derived from fetal liver cells infected with MLL-ENL alone or with a mutation of glycine at amino acid 12 to aspartate of NRAS (NRAS^G12D) or FLT3-ITD expressing vectors^10. Murine cells were maintained in stem cell media (40% DMEM, 40% IMDM, 20% FBS, supplemented with murine SCF to 10 ng/ml, murine IL6 to 2 ng/ml, and murine IL3 to 0.4 ng/ml).
# [5] = test system: MR2 cells (MLL-ENL + NRasG12D); details: read-out: IC50 MR2
# Protocol: as §8
# M1 cells (MLL-ENL alone) [6] = details: read-out: IC50 M1
# Protocol: as §8
# [7] = test system: murine AML cells expressing the p53 shRNA; details: 48 hours
# Protocol: (B) Flow cytometry of Annexin V assay. Cells expressing the p53 short hairpin RNA (shRNA) were exposed to the indicated drug for 48 hours and then labeled with Annexin V and propidium iodide (PI).
# (§9) Cells were seeded in 6-well plates at 25,000 cells/ml in 3 mls, grown for 2 days and treated with the indicated drug for 16, 24, 36, or 48 hours. After centrifugation and washing in cold PBS cells were stained with PI (Sigma Aldrich, St. Louis, Mo.) and APC-conjugated Annexin V in a binding buffer (0.1 M Hepes (pH 7.4), 1.4 M NaCl, and 25 mM CaCl2 solution) (BD Pharmingen, San Jose, Calif.) according to the manufacturer's protocol. Flow cytometric analysis was conducted on a BD FACS Cantoll cytometer with the BD FACSDiva software (BD Biosciences, San Jose, Calif.).
# [8] = test system: human LSCs (K562 and HL60 cells, three primary patient samples); details: 24 hours drug, colonies read on or after day 7
# Protocol: (A) Colony formation assays. Primary patient samples or cell lines were incubated with the indicated drug for 24 hours and placed in methylcellulose media. Plates were read on or after day 7. All concentrations were done in triplicate. Primary AML is the combined results of three independent primary patient samples. Colony numbers are normalized to controls and error bars represent the standard error.
# [9] = test system: MLL-ENL driven murine AML cells
# Protocol: FIG. 4. […] (A) EdU incorporation assays. MLL-ENL driven murine AML cells were incubated with the indicated drug for 8 hours and subjected to a 5-ethynl-2′ deoxyuridine (EdU) incorporation assay. S phase cells were gated as shown. Percentages shown are for cells in S phase. (B) EdU incorporation assay as in (A). Cells were infected with either a p53 targeting shRNA or a control vector and exposed to the indicated drug for 8 hours.
# K562 cells [10] = details: 24 hours
# Protocol: (A) Immuno-fluorescence for gamma histone H2AX (γH2AX) foci. K562 cells were treated with the indicated drug for 24 hours and then assayed for the presence of γH2AX foci. Secondary antibody was conjugated with Alexa Fluor 594 and Images were captured with an Olympus IX70 inverted fluorescent microscope equipped with a Retiga 2000R digital color camera and using an LPIanFI 20×/0.40 objective. Images were analyzed with Image Pro Plus 5.1 software.
# For immunofluorescence studies of phosphorylated γH2AX, cells were fixed with 4% NBF, permeabilized with PBS containing 0.2% Triton-X 100, and probed with anti-phosphoH2AX (#2577, 1:100; Cell Signalling Technologies) followed by donkey anti-rabbit Alexa Fluor 594 conjugated antibody (1:500, A-21207; Invitrogen) and visualized via fluorescence microscopy.
# THP-1 and HL60 cells = details: 48 hours
# Protocol: (B) Flow cytometry of Annexin V assay. THP-1 or HL60 cells were treated with the indicated drug for 48 hours and then labeled with Annexin V and propidium iodide (PI) and analyzed by flow cytometry.
# as §9
# [11] = target: topoisomerase I cleavage complexes (Top1CC) in THP-1, Jurkat and HL60 cells (Homo sapiens, UniProt P11387); assay: ICE bioassay / Top1 cleavage complex detection; details: 100 nM, 24 or 48 hours
# Protocol: (B) ICE bioassay for Top1 cleavage complexes. […] Cells were lysed and subjected to ICE bioassay (see methods), and DNA-containing fractions were blotted for Topo I. (C) Results of TS and Top1 Western blots.
# Cells were plated at 1.5×10^6 cells in 100 mm^2 plates and grown in RPMI 1640 medium with 20% FBS. […] Cells were lysed in 2 ml of 1% sarkosyl in 1×TE pH 7.5 and frozen at −20° C. Samples were homogenized approximately 25 times. Addition of 1 ml of sarkosyl was used to wash the homogenizer. CsCl gradients were made as in^9. The samples were overlaid and ultracentrifuged in a SW41T rotor. Centrifugation was at 36K for 20-22 hours at 20° C. 500 ml fractions were collected. Fractions 6 through 11 were used for analysis. 200 ul of each fraction and an equal volume of 25 mM NaPO4 buffer (pH 6.5) were loaded onto a nitrocellulose membrane using a Schleicher and Schuell Minifold II slot blotter. The membrane was blocked with 5% milk in TBST. Primary antibody was added at 1:500 dilution, overnight at 4° C. Secondary antibody was used in the same manner. ECL Lightning Plus (Perkin Elmer) was used for detection of the TOP1 cleavage complex.
# [12] = test system: MLL-ENL- and FLT3 ITD-expressing cell line with p53-targeting shRNA; assay: Cytotoxicity assay of murine AML cells with p53 knockdown; details: p53 shRNA vs control vector, 72 hours
# Protocol: (A) Cytotoxicity assays of murine AML cells that knockdown p53. Cells were exposed to the indicated drugs for 72 hours and then assessed for viability. Viability is shown as percentage of control; error bars represent the standard error.
# Viability assays were done using the Cell Titer-Glo assay (Promega, Madison, Wis.) according to the manufacturer's protocol. All murine cells were derived from fetal liver cells infected with MLL-ENL alone or with a mutation of glycine at amino acid 12 to aspartate of NRAS (NRAS^G12D) or FLT3-ITD expressing vectors^10. Murine cells were maintained in stem cell media (40% DMEM, 40% IMDM, 20% FBS, supplemented with murine SCF to 10 ng/ml, murine IL6 to 2 ng/ml, and murine IL3 to 0.4 ng/ml).
# [13] = test system: MFL2 cells (MLL-ENL + Flt3 ITD); assay: cells; details: Mus musculus, read-out: IC50 MFL2
# Protocol: as §8
# [14] = test system: MR2 cells (MLL-ENL + NRasG12D); assay: cells; details: Mus musculus, read-out: IC50 MR2
# Protocol: as §8
# M1 cells (MLL-ENL alone) [15] = assay: cells; details: Mus musculus, read-out: IC50 M1
# Protocol: as §8
# thymidylate synthase = target: T1, thymidylate synthase (Homo sapiens, UniProt P04818); assay: TS catalytic activity in treated HL60 cells; type: cell-based; details: 100 nM 5-FU
# T1 construct: endogenous in cells; host or cells: HL60
# normal C57/Bl6 mice = assay: Toxicology study, histopathology; type: in vivo, mouse; details: dosed days 1, 3, 5, 7; sacrificed three days after last treatment
# Protocol: (§4) FIG. 7. […] Mice were treated in the same manner as the in FIG. 6; sacrificed 72 hours after the last dose; and organs were harvested, fixed, paraffin-embedded, sectioned, and stained. Slides were imaged using a Nikon Eclipse 50i light microscope, magnification as indicated. Photographs of tissues were taken using the NIS Elements D3.10 camera and software system. (B) Bone marrow transplant. […] Ly5.1+C57/Bl6 recipient mice were irradiated to 8 gray and injected with donor cells. After three weeks recipients were harvested and degree of femur engraftment by donor cells was determined by staining with Ly5.2 antibody and analyzed by flow cytometry.
# (§5) Normal C57/Bl6 mice were treated with identical dose, schedule and route of each drug as in the efficacy studies (i.e. Day 1, 3, 5 and 7). 72 hours after the last dose, animals were sacrificed, bilateral femoral cells harvested and organs fixed in 10% neutral buffered formalin followed by routine tissue processing and sectioning for hematoxylin and eosin staining. Slides were then reviewed by a veterinary pathologist using a Nikon Eclipse 50i light microscope. Photographs of tissues were taken using the NIS Elements D3.10 camera and software system. […] Three weeks later recipient femoral bone marrow was harvested and stained with APC-conjugated anti-Ly5.2 antibody (BD Pharmingen, San Diego, Calif.) and analyzed by flow cytometry. […]
# normal murine HSCs = details: mouse, in vivo
# Protocol: as §4, §5
# [16] = test system: murine AML cells expressing p210 BCR-ABL; assay: Cytotoxicity assay of murine AML cells expressing p210 BCR-ABL; type: cell-based; details: 72 hours
# Description: (§6) FIG. 1. […] (B) Flow cytometry of Annexin V assay.
# (§7) In addition to p53 loss, several other adverse prognostic factors are expressed in the cell lines tested. K562 cells express the fusion gene BCR-ABL that has been implicated in chemotherapy resistance^17 and prognosis in AML^18. THP-1 cells express high levels of MN1^18, shown to confer an adverse prognosis^20-21.
# [17] = test system: murine AML cells expressing human MN1; assay: Cytotoxicity assay of murine AML cells expressing MN1; type: cell-based; details: 72 hours
# Description: as §6, §7
# [18] = days 1, 3, 5 and 7, FdUMP[10] 300 mg/kg
# T1 sequence (P04818 2-313 limits assumed): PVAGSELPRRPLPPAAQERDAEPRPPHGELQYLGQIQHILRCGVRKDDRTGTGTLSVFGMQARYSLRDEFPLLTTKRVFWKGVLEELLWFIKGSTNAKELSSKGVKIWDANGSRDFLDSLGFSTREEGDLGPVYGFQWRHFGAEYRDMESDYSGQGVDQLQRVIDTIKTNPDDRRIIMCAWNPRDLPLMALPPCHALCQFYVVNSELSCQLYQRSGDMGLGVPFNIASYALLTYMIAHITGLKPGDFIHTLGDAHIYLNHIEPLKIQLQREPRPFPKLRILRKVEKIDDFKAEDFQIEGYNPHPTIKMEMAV
# Chain of topoisomerase I cleavage complexes (Top1CC) in THP-1, Jurkat and HL60 cells (P11387 2-765 limits assumed, one chain of several): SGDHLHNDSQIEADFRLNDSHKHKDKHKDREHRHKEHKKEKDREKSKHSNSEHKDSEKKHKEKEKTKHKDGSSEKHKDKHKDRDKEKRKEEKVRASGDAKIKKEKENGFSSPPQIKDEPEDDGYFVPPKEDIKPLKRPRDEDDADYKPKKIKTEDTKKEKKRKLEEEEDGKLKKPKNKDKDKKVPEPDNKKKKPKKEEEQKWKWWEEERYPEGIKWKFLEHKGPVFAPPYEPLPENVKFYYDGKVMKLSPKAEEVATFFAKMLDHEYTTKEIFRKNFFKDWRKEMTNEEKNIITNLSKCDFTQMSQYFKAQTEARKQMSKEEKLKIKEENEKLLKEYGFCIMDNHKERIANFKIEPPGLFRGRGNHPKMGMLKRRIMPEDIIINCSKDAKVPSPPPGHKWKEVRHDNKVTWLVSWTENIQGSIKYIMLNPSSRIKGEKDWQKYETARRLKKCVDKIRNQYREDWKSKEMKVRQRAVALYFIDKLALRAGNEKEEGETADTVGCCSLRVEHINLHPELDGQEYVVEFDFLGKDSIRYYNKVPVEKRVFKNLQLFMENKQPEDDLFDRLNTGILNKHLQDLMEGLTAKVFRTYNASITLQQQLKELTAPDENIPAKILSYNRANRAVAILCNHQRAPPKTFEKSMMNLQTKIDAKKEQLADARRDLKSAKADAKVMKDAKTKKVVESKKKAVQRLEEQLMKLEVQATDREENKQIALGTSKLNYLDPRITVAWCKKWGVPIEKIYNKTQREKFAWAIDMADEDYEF
molecule,measurement,setting,value
10-mer oligonucleotide of 5-fluorodeoxyuridine [FdUMP[10]],IC50,HL60 cells,0.0034 µM
same,IC50,Jurkat cells,0.0054 µM
same,IC50,THP-1 cells,0.0041 µM
same,IC50,K562 cells [1],0.0215 µM
same,IC50,KG1a cells,0.0049 µM
same,IC50,OCI-AML3 cells,0.0055 µM
same,apoptosis induction in murine AML cell lines,murine AML cell lines,efficiently induced apoptosis
same,survival,[2]; 300 mg/kg every other day for four doses,significant survival benefit
same,disease burden (bioluminescence),[2]; 300 mg/kg on days 1 and 4,reduction in disease burden
same,survival vs untreated controls,[2]; 300 mg/kg on days 1 and 4,statistically significant survival benefit
same,survival compared to Ara/Dox treated animals,"[3]; Ara-C 125 mg/kg plus doxorubicin 3.75 mg/kg, days 1, 3, 5, 7",no difference in survival
same,disease burden (bioluminescent imaging),[3]; [18],reduced disease burden
same,survival compared to controls,[3]; [18],improved survival
same,IC50,[4],0.000131 µM
same,IC50,[5],0.000124 µM
same,IC50,M1 cells (MLL-ENL alone) [6],0.000124 µM
same,Annexin V binding in p53-suppressing cells,[7],positive for Annexin V binding
same,"suppression of colony formation, cell lines and primary patient samples",[8],highly effective in suppressing colony formation
same,S-phase arrest in cells expressing a p53 targeting shRNA,[9]; 8 hours exposure,efficiently arrested in S-phase
same,accumulation of cells in S-phase,[9]; eight hours exposure,cells accumulated in S-phase
same,γH2AX foci (DNA DSBs),K562 cells [10]; 10 or 100 nM,formation of multiple γH2AX foci
same,apoptosis by Annexin V and propidium iodide staining,THP-1 and HL60 cells; 10 or 100 nM,a majority of cells were stained positive
same,trapped Top1 cleavage complexes,[11],Top1 was detected co-migrating with genomic DNA
same,change in response (viability) on loss of p53 response,[12],no change observed
"Nc1ccn([C@@H]2O[C@H](CO)[C@@H](O)[C@@H]2O)c(=O)n1 [Cytarabine, cytarabine]",IC50,"HL60 cells; Homo sapiens, HL-60",0.145 µM
same,IC50,"Jurkat cells; Homo sapiens, Jurkat",0.0155 µM
same,IC50,"THP-1 cells; Homo sapiens, THP-1",6.7 µM
same,IC50,"K562 cells [1]; Homo sapiens, K562",0.0837 µM
same,IC50,"KG1a cells; Homo sapiens, KG-1a",0.196 µM
same,IC50,"OCI-AML3 cells; Homo sapiens, OCI-AML-3",0.134 µM
same,IC50,[13],0.0544 µM
same,IC50,[14],0.0718 µM
same,IC50,M1 cells (MLL-ENL alone) [15],0.0468 µM
"O=c1[nH]cc(F)c(=O)[nH]1 [5-FU, 5-fluorouracil]",IC50,"HL60 cells; Homo sapiens, HL-60",5 µM
same,IC50,"Jurkat cells; Homo sapiens, Jurkat",7.5 µM
same,IC50,"THP-1 cells; Homo sapiens, THP-1",1.2 µM
same,IC50,"K562 cells [1]; Homo sapiens, K562",7 µM
same,IC50,"KG1a cells; Homo sapiens, KG-1a",5.3 µM
same,TS inhibition,thymidylate synthase,did not significantly inhibit TS
same,deaths on treatment,"[3]; 5-FU 121 mg/kg days 1, 3, 5, 7",early deaths
same,survival compared to controls,[3]; [18],no survival benefit over controls
same,GI-tract histopathology (small and large intestine),normal C57/Bl6 mice,severe villous blunting and fusion with crypt necrosis
same,bone marrow histopathology,normal C57/Bl6 mice,severe pancytopenia
same,engraftment of femur cells from treated donors in irradiated recipients,normal murine HSCs,only minimal engraftment
same,accumulation of cells in S-phase,"[9]; eight hours, 5-FU at 100 times the FdUMP[10] concentration",essentially no difference in the number of cells in S-phase from control
same,γH2AX foci (DNA DSBs),K562 cells [10]; 1 μM,did not result in the formation of γH2AX foci
same,apoptosis by Annexin V staining,THP-1 and HL60 cells; 100 nM 5-FU,only minimal annexin V positive cells
same,IC50,[13],0.292 µM
same,IC50,[14],0.214 µM
"COc1cccc2c1C(=O)c1c(O)c3c(c(O)c1C2=O)C[C@@](O)(C(=O)CO)C[C@@H]3O[C@H]1C[C@H](N)[C@H](O)[C@H](C)O1 [Doxorubicin, doxorubicin]",IC50,"HL60 cells; Homo sapiens, HL-60",0.0217 µM
same,IC50,"Jurkat cells; Homo sapiens, Jurkat",0.0752 µM
same,IC50,"THP-1 cells; Homo sapiens, THP-1",0.161 µM
same,IC50,"K562 cells [1]; Homo sapiens, K562",0.253 µM
same,IC50,"KG1a cells; Homo sapiens, KG-1a",1.3 µM
same,"fold change of IC50 vs parental leukemia cells, p210 BCR-ABL",[16],2.95 fold
same,"fold change of IC50 vs parental leukemia cells, MN1",[17],> 10 fold
same,IC50,[13],0.0246 µM
same,IC50,[14],0.0114 µM
same,IC50,M1 cells (MLL-ENL alone) [15],0.0037 µM
same,change in response (viability) on loss of p53 response,[12],resistance
